Data reported in patent US20250025454A1 (priority 2021, published 2025).
“And” between values parts separate entries of the source, which are not always exact repeats. Equal values may be shown once. “Also recorded” adds a separate entry of the source.

Columns and labels:
[1] = test system: SARS-CoV-2; details: Scripps ReFrame database; cited from earlier work
[2] = Pharmacokinetics (plasma and lung tissue) after single and 5-day repeat oral dosing in female 129S1 mice; details: for adverse reactions / tolerability: female 129S1 mice, PO 50 and 250 mg/kg up to 5 days; for Kp: Lung/Plasma AUC ratio; for AUC(0-t): AUClast ± SE; for MRT last at 5 day / MRT last: MRTlast; for Kp at 24 h: L/P Ratio, non-infected mice, 250 mg/kg QD oral
[3] = female, 129S1, mouse, in vivo, 250 mg/kg
[4] = female, 129S1, mouse, in vivo, po, 50 mg/kg
[5] = female, 129S1, mouse, in vivo, po, 50 mg/kg, plasma, 50 mg/kg PO multiple, 5-day, dose
[6] = female, 129S1, mouse, in vivo, po, 50 mg/kg, plasma, 50 mg/kg PO single dose
[7] = female, 129S1, mouse, in vivo, po, 250 mg/kg
[8] = female, 129S1, mouse, in vivo, po, 250 mg/kg, plasma, 250 mg/kg PO multiple, 5-day, dose
[9] = female, 129S1, mouse, in vivo, po, 250 mg/kg, plasma, 250 mg/kg PO single dose
[10] = female, 129S1, mouse, in vivo, po, 250 mg/kg, lung, 250 mg/kg PO multiple, 5-day, dose

SMILES: Cc1c(-c2ccc(O)cc2)n(Cc2ccc(OCCN3CCCCC3)cc2)c2ccc(O)cc12 [Pipendoxifene, 2-(4-hydroxyphenyl)-3-methyl-1-[[4-(2-piperidin-1-ylethoxy)phenyl]methyl]indol-5-ol]
- activity in HTS [1]: INACTIVE
- Lung Cmax over SARS-CoV-2 IC50 ([2]; 50 mg/kg): 17 fold
- Mean plasma concentration ([2]; 50 mg/kg PO single dose, 1.0 hr): 0.0891 µg/mL
- Lung Cmax over SARS-CoV-2 IC50 ([2]; 250 mg/kg): 121 fold
- Mean plasma concentration ([2]; 250 mg/kg PO single dose, 0.5 hr): 0.0888 µg/mL
- adverse reactions / tolerability [2]: no adverse events
- adverse reactions / tolerability ([2]; listed as MDL-001): well tolerated with no adverse clinical signs; also recorded: No adverse reactions were observed
- adverse reactions / tolerability ([2]; listed as pipendoxifene): No adverse reactions were observed
- concentration at 8 hr ([2]; female, 129S1, mouse, in vivo, 50 mg/kg): 7840 ng/g
- Kp ([2]; female, 129S1, mouse, in vivo, 50 mg/kg, Day 1, 50 mg/kg): 65
- Kp ([2]; female, 129S1, mouse, in vivo, 50 mg/kg, Day 5, 50 mg/kg): 56
- concentration at 8 h [2, 3]: 0.575 ± 0.194 µg/mL
- concentration at 8 hr [2, 3]: 0.121 µg/mL
- half-life [2, 3]: 2.36 to 3.96 h
- Kp ([2]; female, 129S1, mouse, in vivo, 250 mg/kg, Day 1, 250 mg/kg): 36
- Kp ([2]; female, 129S1, mouse, in vivo, 250 mg/kg, Day 5, 250 mg/kg): 44
- Cmax [2, 4]: 179 ng/mL and 8310 ng/g
- Cmax at 5 day [2, 4]: 5610 ± 925 ng/g
- half-life [2, 4]: 2.36 h
- half-life at 5 day [2, 4]: 2.58 h
- AUC(0-t) [2, 5]: 1.39 ± 0.055 µg·h/mL
- AUC(0-t) [2, 6]: 1.6 ± 0.115 µg·h/mL
- AUC(0-inf) [2, 5]: 1.4 µg·h/mL
- AUC(0-inf) [2, 6]: 1.6 µg·h/mL
- MRT last at 5 day [2, 5]: 7.1 h
- MRT last [2, 6]: 6.95 h
- Tmax at 5 day ([2]; female, 129S1, mouse, in vivo, po, 50 mg/kg, lung, 50 mg/kg PO multiple, 5-day, dose): 8 h
- Tmax ([2]; female, 129S1, mouse, in vivo, po, 50 mg/kg, lung, 50 mg/kg PO single dose): 4 h
- Tmax [2, 6]: 2 h
- Cmax [2, 7]: 1020 ng/mL and 24700 ng/g
- Cmax at 5 day [2, 7]: 39000 ± 8840 ng/g
- half-life [2, 7]: 3.96 h
- half-life at 5 day [2, 7]: 2.52 h
- AUC(0-t) [2, 8]: 11.6 ± 1.19 µg·h/mL
- AUC(0-inf) [2, 8]: 11.7 µg·h/mL
- AUC(0-inf) [2, 9]: 10.5 µg·h/mL
- Kp at 24 h ([2]; female, 129S1, mouse, in vivo, po, 250 mg/kg, Day 1): 114
- Kp at 24 h ([2]; female, 129S1, mouse, in vivo, po, 250 mg/kg, Day 5): 177
- MRT last at 5 day [2, 10]: 7.22 h
- MRT last [2, 9]: 8.86 h
- Tmax at 5 day [2, 10]: 4 h
- Tmax ([2]; female, 129S1, mouse, in vivo, po, 250 mg/kg, lung, 250 mg/kg PO single dose): 8 h
- concentration at 8 h ([2]; female, 129S1, mouse, lung, oral, 50 mg/kg, Mean lung tissue concentration, 50 mg/kg PO multiple, 5-day, dose, 8.0 hr): 5610 ± 1600 ng/g
- concentration at 1 hr ([2]; female, 129S1, mouse, plasma, oral, 50 mg/kg, Mean plasma concentration, 50 mg/kg PO single dose, 1.0 hr): 0.0891 ± 0.0712 µg/mL
- concentration at 4 h ([2]; female, 129S1, mouse, plasma, oral, 50 mg/kg, Mean plasma concentration, 50 mg/kg PO single dose, 4.0 hr): 0.107 ± 0.023 µg/mL
- concentration at 2 hr ([2]; female, 129S1, mouse, plasma, oral, 50 mg/kg, Plasma Conc., individual mouse, 50 mg/kg PO multiple, 5-day, dose, 2.0 hr): 0.113 µg/mL
- concentration at 6 hr ([2]; female, 129S1, mouse, plasma, oral, 50 mg/kg, Plasma Conc., individual mouse, 50 mg/kg PO multiple, 5-day, dose, 6.0 hr): 0.163 µg/mL
- concentration at 8 hr ([2]; female, 129S1, mouse, plasma, oral, 50 mg/kg, Plasma Conc., individual mouse, 50 mg/kg PO single dose, 8.0 hr): 0.113 µg/mL
- concentration at 0.5 h ([2]; female, 129S1, mouse, plasma, oral, 250 mg/kg, Mean plasma concentration, 250 mg/kg PO single dose, 0.5 hr): 0.0888 ± 0.0141 µg/mL
- concentration at 4 hr ([2]; female, 129S1, mouse, plasma, oral, 250 mg/kg, Plasma Conc., individual mouse, 250 mg/kg PO multiple, 5-day, dose, 4.0 hr): 0.497 µg/mL
